Tests used:
Type in all cases: in vivo
[1] = single oral administration to a mouse, death; details: single dosage of 100 mg/kg
[2] = test system: lymphocystis disease; experiment: soaking plus feed for bastard halibuts with lymphocystis disease cultured on land (Example 1); details: fishes without lymphocystis disease (preventive)
Experimental: Then, the water was replaced with seawater. A feed for diseased bastard halibuts was prepared by adding 7 kg of the heat treatment product of alginic acid to 134 kg of the moist feed as shown in Table 1 below. The feed was given to the soaked bastard halibuts twice a day such that the heat treatment product of alginic acid was given at 0.78 g/kg/day.

[3] = test system: lymphocystis disease; experiment: feed for bastard halibuts with lymphocystis disease cultured in sea (Example 2); details: fishes without infection similarly treated
Experimental: A feed for young bastard halibuts (average body weight: 350 g) suffered from lymphocystis disease during culturing in sea was prepared by adding 3 kg of the heat treatment product of alginic acid as described in Referential Example 1-(1) to 136 kg of the moist feed as shown in Table 2 below. The feed was given to the fishes once in two days such that the heat treatment product of alginic acid was given at 1.2 g/kg/feeding.

[4] = test system: gliding bacteria disease; experiment: young bastard halibuts with gliding bacteria disease, soaking or feed (Example 3); details: fishes without infection similarly treated
Experimental: Young bastard halibuts with gliding bacteria disease (body weight: about 4 g) cultured on land were divided into four groups. Effect of the heat treatment product of alginic acid as described in Referential Example 1-(1) on gliding bacteria disease was examined.
Control group: 2400 young bastard halibuts were fed with commercially available dry pellets (Otohime No. 4: Nisshin Flour Milling) once a day. They were bred in a 25000-l seawater tank.
Soaked group: A water tank for soaking was prepared by adding 880 g of the heat treatment product of alginic acid to 400 l of seawater and starting oxygen supply. 2375 young bastard halibuts were distributed in baskets such that several hundreds of the fishes were contained in a basket. They were soaked in the water tank for soaking for 30 minutes. After soaking, they were bred in a 25000-l seawater tank being fed with commercially available dry pellets once a day.
Group administered with the heat treatment product of alginic acid (1): 2380 young bastard halibuts were bred in a 25000-l seawater tank being fed once a day with a feed prepared by adding 500 g of the heat treatment product of alginic acid to 78 kg of a moist feed as shown in Table 3 below. […]

[5] = test system: white-mouth disease; experiment: feed for tiger globefishes with white-mouth disease (Example 4); details: fishes without infection similarly treated
Experimental: A feed containing the heat treatment product of alginic acid to be given a day to 2000 tiger globefishes (average body weight: 450 g) suffered from white-mouth disease during culturing in sea was prepared upon use as follows. 1.11 kg of the heat treatment product of alginic acid as described in Referential Example 1-(1) was dissolved in water to a volume of 1.5 l. 10 kg of dry pellet feed (Otohime for globefish: Nisshin Flour Milling) was soaked with the solution. The entire feed was given to the fishes once a day such that 20 mg/kg body weight/day of cyclopentenone was given (group administered with the feed containing the heat treatment product of alginic acid).
As a control, 10 kg of the dry pellet feed (otohime for globefish: Nisshin Flour Milling) was given to 2000 tiger globefishes with white-mouth disease (average body weight: 450 g) once a day (control group)

**Q.** What does the source list for `O=C1C=CC(O)C1O` (centres unmarked) [cyclopentenone, 4,5-dihydroxy-2-cyclopenten-1-one]?
**A.** death [1]: No death; occurrence of lymphocystis disease [2]: no occurrence; occurrence of infection [3]: no occurrence of infection; occurrence of infection [4]: no occurrence of infection; occurrence of infection [5]: no occurrence of infection

— US6552001B1, “Method breeding and feeds” (Takara Shuzo Co., Ltd., priority 1998, dated 2003)
